Assay results: PubChem BioAssay (NCI)
Values joined by “and” are separate entries in the source; they are usually repeats but may differ in a detail not shown here. Equal entries are not always repeated.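 96-well plates; 48 h exposure; 5 concentrations. Endpoints by linear interpolation between flanking doses. Not reached: highest tested concentration assigned. Here, GI50 denotes the concentration required for 50% inhibition of growth. TGI denotes the concentration required for complete inhibition of growth.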

Assays:
Assay in all cases: growth of human tumour cells (NCI), 48 h
HOP-18 NSCLC = tested on: HOP-18 NSCLC
RXF-631 renal = tested on: RXF-631 renal
SNB-78 CNS = tested on: SNB-78 CNS
XF 498 CNS = tested on: XF 498 CNS
KM20L2 colon = tested on: KM20L2 colon
DLD-1 colon = tested on: DLD-1 colon
M19-MEL melanoma = tested on: M19-MEL melanoma
DMS 273 small cell lung = tested on: DMS 273 small cell lung
MDA-N = tested on: MDA-N

Structure (SMILES)	TGI (HOP-18 NSCLC) [µM]	TGI (RXF-631 renal) [µM]	TGI (SNB-78 CNS) [µM]	TGI (XF 498 CNS)	TGI (KM20L2 colon) [µM]	TGI (DLD-1 colon) [µM]	TGI (M19-MEL melanoma)	TGI (DMS 273 small cell lung)	other results
CSc1snc2sc3c(Cl)nnnc3c12	33.9	38.4	38.1	27.4 µM	30.9	22.7	24.1 µM	23.9 µM	–
COc1cc(C2=N/C(=C/c3cccs3)C(=O)O2)cc(OC)c1OC	–	–	–	–	–	–	–	–	TGI (MDA-N): > 100 µM
Cc1ccc(NS(=O)(=O)c2cccc(C#N)c2)c2[nH]cc(C#N)c12	–	–	–	–	–	–	–	–	GI50 (MDA-N): 4.1 µM; TGI (MDA-N): > 91.6 µM
Cc1cccc(C(C)(C)C)c1NC(=O)CCc1nc(=S)[nH][nH]1	–	> 100	> 100	> 100 µM	> 100	> 100	> 100 µM	> 100 µM	–
CCOC(=O)c1cnc2c(ccc3ncccc32)c1NCCCN(CC)CC	> 100	–	> 100	> 100 µM	> 100	> 100	> 100 µM	> 100 µM	–
CC(=O)O[C@@]1(C)[C@@H](C)C(=O)O[C@@H]2CCN3CC=C(COC(=O)[C@]1(C)O)[C@H]23	–	–	–	–	> 100	> 100	> 100 µM	> 100 µM	–
CC(C)(C)c1ccc(OCCOCCOc2ccc(C(C)(C)C)cc2S(=O)(=O)Nc2ccc([N+](=O)[O-])cc2)c(S(=O)(=O)Nc2ccc([N+](=O)[O-])cc2)c1	> 100	> 100	> 100	–	–	> 100	> 100 µM	> 100 µM	–
O=C(O/N=C1/CCC/C1=C\c1ccccc1)c1ccc(Cl)c(Cl)c1	> 100	> 100	> 100	–	> 100	> 100	> 100 µM	> 100 µM	–
CC(C)=CCC/C(C)=C\CCC1(C)OC(=O)C2CC21 (stereo not drawn)	–	–	–	–	–	–	–	–	GI50 (MDA-N): > 100 µM and 23.8 µM; TGI (MDA-N): > 100 µM and 85.1 µM
O=C1C2C(C(=O)N1c1ccccc1)C1([N+](=O)[O-])C=C3c4ccccc4N(C(=O)c4ccccc4)C32C2C(=O)N(c3ccccc3)C(=O)C21 (stereo not drawn)	–	> 100	> 100	> 100 µM	–	> 100	> 100 µM	> 100 µM	–
COc1ccc2c3c(c(C(=O)c4ccccc4)oc13)CCC2	> 100	> 100	> 100	> 100 µM	> 100	> 100	> 100 µM	> 100 µM	–
CSC(=S)OC1CC(n2cnc3c(NC(=O)c4ccccc4)ncnc32)OC1CO[Si](C)(C)C(C)(C)C (stereo not drawn)	–	–	–	–	–	–	–	–	TGI (MDA-N): 47.4 µM
CC(C(N)C(=O)NC(C(=O)O)C1OC(n2ccc(=O)[nH]c2=O)C(O)C1O)C(O)c1ccc(O)cn1 (stereo not drawn)	–	–	–	–	–	–	–	–	TGI (MDA-N): > 100 µM
COC(=O)C12OCC34C(CC5C(C)C6=CC(=O)OC6=CC5(C)C3C(O)C1O)OC(=O)C(O)C24 (stereo not drawn)	–	–	8.31	0.291 µM and 1.93 µM	30.9	–	0.723 µM and 2.2 µM	0.528 µM and 0.359 µM	GI50 (HOP-18 NSCLC): 0.929 µM; GI50 (SNB-78 CNS): 0.402 µM; GI50 (XF 498 CNS): 0.0609 µM and 0.344 µM; GI50 (KM20L2 colon): 0.638 µM; GI50 (M19-MEL melanoma): 0.133 µM; GI50 (DMS 273 small cell lung): 0.0707 µM
NC1=NN(c2ccccc2)C(=O)C1C(=O)C(=O)Nc1nccs1 (stereo not drawn)	> 100	> 100	> 100	–	> 100	> 100	> 100 µM	> 100 µM	–
Nc1n[n+](-c2ccccc2)no1	–	–	> 100	–	> 100	> 100	> 100 µM	> 100 µM	–

Structure (SMILES)	TGI (HOP-18 NSCLC) [µM]	TGI (RXF-631 renal) [µM]	TGI (SNB-78 CNS) [µM]	TGI (XF 498 CNS)	TGI (KM20L2 colon) [µM]	TGI (DLD-1 colon) [µM]	TGI (M19-MEL melanoma)	TGI (DMS 273 small cell lung)	other results
CN(Cc1cc(Br)cc(Br)c1O)Cc1c(O)ccc2ccccc12	–	–	–	–	–	–	–	–	TGI (MDA-N): 39.9 µM
CC1=C(O)/C(=C/C(C)CCC/C(C)=C/C=C/C(C)CCCc2ccoc2)OC1=O (stereo not drawn)	–	–	> 100	34.6 µM	> 100	> 100	> 100 µM	> 100 µM	–
O=C1C2CCN(CC2)C1(CO)CO	–	–	–	–	–	–	–	–	TGI (MDA-N): > 100 µM
CC(=O)[CH-]C(=O)c1ccccc1.CC(=O)[CH-]C(=O)c1ccccc1.Cc1cc([O-])ccc1Cl.Cc1cc([O-])ccc1Cl.[Ti+4]	> 100	–	–	–	84.9	> 100	–	–	GI50 (HOP-18 NSCLC): 27.8 µM; GI50 (KM20L2 colon): 28.3 µM; GI50 (DLD-1 colon): 36.9 µM
O=NNc1ccc(Sc2ccc(NN=O)cn2)nc1	–	–	–	–	–	–	–	–	TGI (MDA-N): > 100 µM
O=C(N/N=C1\C(=O)N(c2nccs2)C(=O)C(=O)C1c1nc2ccccc2s1)c1ccccc1O (stereo not drawn)	77.4	–	> 100	> 100 µM	> 100	> 100	> 100 µM	> 100 µM	–
CCc1cc(CCC(=O)Nc2ccccc2[N+](=O)[O-])[nH]c(=S)n1	> 100	> 100	> 100	–	> 100	> 100	> 100 µM	–	–
C=C1CC2CC(O)CC(C1)C2 (stereo not drawn)	> 100	–	> 100	> 100 µM	> 100	> 100	> 100 µM	> 100 µM	–
CCOC(=O)C(CC/C=C\c1ccccc1)N1CCC[C@H]1C(=O)OC (stereo partly drawn)	> 100	–	> 100	> 100 µM	> 100	> 100	> 100 µM	> 100 µM	–
CCCCCCCCCCCCCCCCCCOCC(CCP(=O)(CP(=O)(O)O)Oc1ccccc1)OCCCCCCCCCCCCCCCCCC (stereo not drawn)	–	–	–	–	–	–	–	–	TGI (MDA-N): > 100 µM
COc1ccc2oc(C(=O)O)c3c2c1CCC3CCC(=O)O (stereo not drawn)	–	> 100	> 100	> 100 µM	–	> 100	> 100 µM	> 100 µM	–
O=C(CCn1[nH]c(=O)c(Cl)c(Cl)c1=O)NNC(=O)C[n+]1ccccc1	> 100	> 100	–	> 100 µM	> 100	> 100	> 100 µM	> 100 µM	–
O=C(CC(=O)c1cccc2ccccc12)C(=O)NC1C2CC3CC(C2)CC1C3 (stereo not drawn)	> 100	> 100	> 100	> 100 µM	> 100	> 100	> 100 µM	> 100 µM	–
C/C=C(\CCOS(=O)(=O)c1ccc(C)cc1)[Si](C)(C)C	> 100	> 100	> 100	> 100 µM	> 100	> 100	> 100 µM	> 100 µM	–
N#CC1(C#N)C2C=CC(c3coc4cccc2c34)C1(C#N)C#N (stereo not drawn)	30.4	–	43.1	15.3 µM	35.5	4.17	8.86 µM	31.6 µM	–
Cc1cccc2c1CCC21OC(=O)c2c1ccc1ccccc21 (stereo not drawn)	> 100	50.2	–	–	> 100	> 100	> 100 µM	91.5 µM	–
